Laboratory results: PubChem BioAssay AID504313 (Emory University Molecular Libraries Screening Center, 2011)
pIC50: −log10 of the molar value. The source made the active and inactive calls. The rule behind the calls is not given here.

These compounds were tested against X-box-binding protein 1 (Homo sapiens) (UniProt P17861) (assay: inhibitors of XBP1 reporter signal, dose response, counter-screen, cell-based (AID 504313;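 note: CHO cells carrying an XBP1 reporter stimulated with tunicamycin; potency is for inhibition of the tunicamycin-induced reporter signal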)). Settings: XBP1 reporter cell assay, percent of control.

Row | SMILES | IC50 | pIC50
1 | Cn1cnc([N+](=O)[O-])c1S(=O)(=O)c1cccc(Cl)c1 | inactive | 
2 | Nc1cc(Cl)ccc1Oc1ccc(Cl)cc1 | inactive | 
3 | CC(C)(C)OC(=O)CNC(=O)c1[nH]cnc1C(=O)Nc1ccc(Cl)cc1 | inactive | 
4 | CCOC(=O)c1c(CN2CCOCC2)n(-c2ccccc2)c2cc(Br)c(O)cc12 | > 10 µM (inactive) | 
5 | O=C(N=Nc1c(O)n(Cc2ccccc2)c2ccccc12)c1cc2ccccc2cc1O | inactive | 
6 | CCNC(=S)N/N=C/c1cc(Br)cc(Br)c1OC | > 10 µM (inactive) | 
7 | NC(=O)CC(NC(=O)Cc1cccc2ccccc12)c1ccc(NCc2ccccc2)c([N+](=O)[O-])c1 (stereo not drawn) | > 10 µM (inactive) | 
8 | Fc1ccc(-n2nnnc2-c2cnc(-c3cccs3)nc2C(F)(F)F)cc1 | inactive | 
9 | COc1cc(C)nc(N2CCCC(C(=O)Nc3cccc(Cl)c3C)C2)n1 (stereo not drawn) | > 10 µM (inactive) | 
10 | Nc1ccc(N2CCCCCC2)cc1 | > 10 µM (inactive) | 
11 | CCN(CCO)c1ncnc2c1sc1nc(C(C)C)c3c(c12)CC(C)(C)OC3 | > 10 µM (inactive) | 
12 | CC(C)(C)c1cc(CN2CCCC(O)C2)c(O)c(C(C)(C)C)c1 (stereo not drawn) | inactive | 
13 | CC(C)Cn1c(N)c(C(=O)COC(=O)CC23CC4CC(CC(C4)C2)C3)c(=O)n(C)c1=O | inactive | 
14 | COc1cccc(-n2nnnc2S(C)(=O)=O)c1 | inactive | 
15 | CCOc1ccc(N2C(=O)/C(=C\c3ccc(O)c(OC)c3)S(=O)(=O)C2c2cccc([N+](=O)[O-])c2)cc1 (stereo not drawn) | > 10 µM (inactive) | 
16 | COc1ccccc1-c1nnc(NC(=O)c2ccc(S(=O)(=O)N(C)Cc3ccccc3)cc2)o1 | inactive | 
17 | CCCCn1c(/N=C/c2c[nH]c3ccccc23)nc2ccccc21 | > 10 µM (inactive) | 
18 | CCCCCCn1c(-c2ccco2)nc2oc3cc(OC)ccc3c(=O)c2c1=O | > 10 µM (inactive) | 
19 | CCN1C/C(=C/c2ccc(OC)c(O)c2)C(=O)/C(=C/c2ccc(OC)c(O)c2)C1 | inactive | 
20 | COc1ccc(C(=O)NC(=O)Nc2cc(C)ccn2)cc1 | inactive | 
21 | COc1ccc(C(=O)Nc2nnc(-c3ccco3)s2)cc1 | inactive | 
22 | CC(/C=C1\SC(=O)N(CCCC(=O)O)C1=O)=C\c1ccccc1 |  | > 6.80
23 | C=CCn1c(C)cc(C2=NNC(=NCC)SC2)c1C | < 0.16 µM (inactive) | 
24 | CCOC(=O)c1c(C)[nH]c2c1-c1ccccc1C(=O)C2=O |  | 5.85
25 | Cc1cc(C)c2nc(C(F)(F)F)c(C#N)c(N)c2c1 | > 10 µM (inactive) | 

Row | SMILES | IC50 | pIC50
26 | Cc1ccc(N=C2SC(C(=O)Nc3ccc(OC(F)(F)F)cc3)C(N)=C2C(=O)Nc2c(C)cc(C)cc2C)cc1 (stereo not drawn) | > 10 µM (inactive) | 
27 | CN1CCc2c(sc(NC(=O)c3cc4cc([N+](=O)[O-])ccc4s3)c2C(N)=O)C1 | > 10 µM (inactive) | 
28 | CC(C)(C)c1ccc(-c2noc(CCC(N)=O)n2)cc1 | < 0.16 µM (inactive) | 
29 | O=C(/C=C\c1cn(-c2ccccc2)nc1-c1ccccc1)Nc1nccs1 | inactive | 
30 | Cc1cc(Cl)ccc1OCC(=O)N[C@@H](Cc1ccccc1)c1nc2ccccc2[nH]1 | > 10 µM (inactive) | 
31 | CCCC(NCC(O)COc1ccc(-c2ccccc2)cc1)c1ccccc1 (stereo not drawn) | inactive | 
32 | O=C1C(=O)c2ccc(-c3ccccc3)cc2-c2ccccc21 |  | 5.49
33 | O=C1c2ccccc2-c2onc3ccc(Oc4ccccc4)c1c23 | inactive | 
34 | CCC(Cc1ccccc1)n1c(=S)[nH]c2ccccc2c1=O (stereo not drawn) | > 10 µM (inactive) | 
35 | COC(=O)Oc1ccc(/C=N/NC(=O)CSCc2ccccc2Br)cc1OC | > 10 µM (inactive) | 
36 | CSc1nc2c(cnn2-c2ccc(C)c(C)c2)c(=O)[nH]1 | > 10 µM (inactive) | 
37 | C=CCOC(=O)C1=C(C)NC(SCC(=O)Nc2nccs2)=C(C#N)C1c1ccc(Cl)cc1 (stereo not drawn) | > 10 µM (inactive) | 
38 | O=C(Cn1c(C(F)(F)F)nc2ccccc21)N=Nc1c(O)[nH]c2ccc(Br)cc12 | > 10 µM (inactive) | 
39 | CC(C)C[C@H](NC(=O)c1[nH]cnc1C(=O)Nc1ccccc1)C(=O)OC(C)(C)C | inactive | 
40 | CCNc1nc(Oc2c(Cl)cccc2Cl)cc(C(F)(F)F)n1 | > 10 µM (inactive) | 
41 | COc1ccc(/C=C2\SC(=S)N(CCCC(=O)Nc3ccc(O)cc3)C2=O)cc1 |  | > 6.80
42 | CCC(C)c1ccc(O)c(NC(=O)c2cncc(Br)c2)c1 (stereo not drawn) | inactive | 
43 | CN1CCN(CC(=O)N2CCn3c4c(c5cc(C6CCCCC6)ccc53)CCCC42)CC1 (stereo not drawn) | > 10 µM (inactive) | 
44 | O=C(OCn1ncc(Cl)c(Cl)c1=O)c1ccc(C(F)(F)F)cc1 | > 10 µM (inactive) | 
45 | Cc1ccc(NC(=O)CCl)cc1S(=O)(=O)N1CCCCCC1 | inactive | 
46 | CCCCCc1ccc(OCCOCCn2c[n+](C)c3ccccc32)c(CCCCC)c1 | inactive | 
47 | C=CCn1c(O)c(C(CC)=Nc2ccc(N(CC)CC)cc2)c(=O)[nH]c1=O | inactive | 
48 | CCCCCCn1c(N2CCC(C)CC2)nc2c1c(=O)[nH]c(=O)n2C | > 10 µM (inactive) | 
49 | O=C(NC(c1ccccc1)c1cc(Cl)c2cccnc2c1O)c1cccnc1 (stereo not drawn) | inactive | 
50 | O=C(/C=C/c1ccccc1)Nc1cccc(C(=O)O)c1 | inactive | 

Row | SMILES | IC50 | pIC50
51 | COC(=O)/C(=C1/Oc2cc(C)oc(=O)c2S1)C(F)(F)F |  | 5.53
52 | Cn1c(=O)c(C(=O)Nc2ncccc2O)c(O)c2ccccc21 | > 10 µM (inactive) | 
53 | Cc1ccc(NP(=O)(Oc2ccccc2F)Oc2ccccc2F)cc1 | inactive | 
54 | CC1CCC(C(C)C)C(OC(=O)COC(=O)c2cc(O)ccc2N)C1 (stereo not drawn) | inactive | 
55 | C=CCn1c(SCC(=O)Nc2ccc(-c3nc4ccc(C)cc4s3)cc2)nnc1-c1ccccc1 | > 10 µM (inactive) | 
56 | COC(=O)c1cc(NC(=S)Nc2cc(Cl)cc(Cl)c2)cc(C(=O)OC)c1 | > 10 µM (inactive) | 
57 | Cc1ccc(OCC(=O)N2CCN(c3nnc(-c4ccc(C)cc4)c4ccccc34)CC2)cc1 | inactive | 
58 | CC(C)(C)C(=O)c1no[n+]([O-])c1/C(=N/O)C(C)(C)C | > 10 µM (inactive) | 
59 | FC(F)(F)c1cccc(CN2CCC(c3cc(-c4cccs4)n[nH]3)CC2)c1 | > 10 µM (inactive) | 
60 | C=CCN1C(=O)/C(=C/c2ccc(OC(C)=O)c(OCC)c2[N+](=O)[O-])SC1=S | inactive | 
61 | FC(F)(F)c1cccc(Sc2nc(-c3ccccc3)nnc2C(F)(F)F)c1 | inactive | 
62 | Cc1ccc(C(=O)N/C(=C\c2ccc(Br)cc2)c2nc(=S)[nH][nH]2)cc1 | > 10 µM (inactive) | 
63 | CN(C)CCCn1c(SCC(=O)Nc2nc(-c3cccc(Br)c3)cs2)nc2ccccc2c1=O | > 10 µM (inactive) | 
64 | O=C(/C=C/Sc1ncn[nH]1)c1ccc(Cl)cc1 | inactive | 
65 | O=c1cc(-c2c(F)c(F)c(F)c(F)c2F)oc2c(F)c(F)c(F)c(F)c12 |  | 5.33
66 | Nc1c(C(=O)Nc2ccc(S(=O)(=O)N3CCCC3)cc2)sc2nc3ccc(OC(F)(F)F)cc3cc12 | inactive | 
67 | CN(CCCC[C@H](CNCc1ccc(-c2ccccc2)cc1)N1C[C@H](c2ccccc2)N(CCc2ccc(Cl)c(Cl)c2)C(=O)C1=O)Cc1ccc(-c2ccccc2)cc1 | inactive | 
68 | COc1cccc(N2CCN(c3ncnc4c3[nH]c3ccccc34)CC2C)c1 (stereo not drawn) | inactive | 
69 | O=C(/C=C/c1cccc([N+](=O)[O-])c1)n1cnc2ccccc21 | inactive | 
70 | O=C(OCC(F)(F)F)c1cccc(COc2ccc3ccccc3c2)c1 |  | 6.01
71 | O=C1CC(c2cccc(Cl)c2)CC(O)=C1C=Nc1cccc(Cl)c1 (stereo not drawn) | > 10 µM (inactive) | 
72 | Clc1ccc2[nH]c(-c3ccccc3)cc2c1 | > 10 µM (inactive) | 
73 | COc1ccc(NC(=O)c2cc3cccc(OC)c3oc2=Nc2ccc(C(=O)O)cc2)cc1OC | inactive | 
74 | COc1ccc(N/N=C(\C=N\O)C(=O)c2ccc(OC)cc2)cc1 | > 10 µM (inactive) | 
75 | CC1=NNC(=O)/C1=C\c1cn(-c2ccccc2)nc1-c1ccc(F)cc1 | inactive | 

Row | SMILES | IC50 | pIC50
76 | COc1ccc(Cn2c(SCc3ccccc3C)nc3cc(OC)c(OC)cc3c2=N)cc1 | > 10 µM (inactive) | 
77 | CCCCCCn1c(CN2CCN(Cc3ccccc3)CC2)nc2c1c(=O)n(C)c(=O)n2C | > 10 µM (inactive) | 
78 | CC(C)(C)c1ccc(Oc2ccc(N)cc2)cc1 |  | > 6.80
79 | Cc1nn(-c2ccccc2Cl)c(Cl)c1/C=N/Nc1nc2ccccc2s1 |  | > 6.80
80 | O=C(Nc1ccccc1)C1=C(c2ccccc2)S(=O)(=O)CCS1(=O)=O | inactive | 
81 | Cc1ccccc1Oc1cc(-n2ncc(Cl)c(Cl)c2=O)ncn1 |  | 5.76
82 | CC(C)(C)c1ccc(C2CC2C(=O)N/N=C\c2ccc[nH]2)cc1 (stereo not drawn) | inactive | 
83 | CCOc1ccc(/C=C/C2=Cc3c(sc(NC(=O)CSc4n[nH]c(N)n4)c3C#N)C(C)(C)C2)cc1 | > 10 µM (inactive) | 
84 | O=C(O)CSCC(=O)Nc1ccc(C2CCCCC2)cc1 | inactive | 
85 | O=[N+]([O-])c1c(NCCCO)cc(Sc2ccc(Cl)cc2)c2nonc12 | inactive | 
86 | O=c1[nH]c(=O)n(Cc2ccco2)c2c1C(C(F)(F)F)(C(F)(F)F)N=C(c1ccc(F)cc1)N2 | > 10 µM (inactive) | 
87 | Cc1nn(CCC#N)c2nc(-c3ccccc3)cc(C(F)(F)F)c12 | inactive | 
88 | Nc1c(C(=O)Nc2ccccc2F)sc2nc(-c3cccnc3)ccc12 | > 10 µM (inactive) | 
89 | COc1cc(/C=C2\CC/C(=C\c3cc(OC)c(O)c(OC)c3)C2=O)cc(OC)c1O | inactive | 
90 | Nc1ccc2oc(-c3cc(Br)ccc3Cl)nc2c1 |  | 6.41
91 | O=C(OCn1ncc(Cl)c(Cl)c1=O)c1ccc(F)cc1 |  | 5.43
92 | Cc1ccc2nc(-c3cc(-c4ccccc4)no3)cn2c1 | > 10 µM (inactive) | 
93 | COc1ccc(Cc2nc3ccccc3n2CC(=O)N/N=C/c2ccc(C)cc2O)cc1OC | > 10 µM (inactive) | 
94 | CC(C)NC(=O)c1ccccc1NC(=O)/C=C/c1cccc([N+](=O)[O-])c1 | > 10 µM (inactive) | 
95 | Cc1ccc(NC(=O)CSc2nc3ccccc3c3nc(CCc4c(C)n[nH]c4C)nn23)cc1F | > 10 µM (inactive) | 
96 | C/C(N)=C(/C#N)C(=O)COC(=O)C1CCC(C(C)(C)C)CC1 (stereo not drawn) | > 10 µM (inactive) | 
97 | Cc1nc(SCC(=O)Nc2ccc(F)cc2)c(C#N)c(C)c1CC(=O)c1ccc(Br)cc1 | > 10 µM (inactive) | 
98 | O=[N+]([O-])c1ccc(/C=N/n2c(C3CCCCC3)n[nH]c2=S)cc1 | > 10 µM (inactive) | 
